# Activity calls are given as the source filed them.
# Assays:
# [1] = biological target: T1, High affinity choline transporter 1 (Homo sapiens, UniProt Q9GZV3); experiment: CHT inhibitors, dose response, cell-based, 5-point CRC, membrane potential dye (AID 504840); format: functional
# T1 sequence (Q9GZV3 whole entry): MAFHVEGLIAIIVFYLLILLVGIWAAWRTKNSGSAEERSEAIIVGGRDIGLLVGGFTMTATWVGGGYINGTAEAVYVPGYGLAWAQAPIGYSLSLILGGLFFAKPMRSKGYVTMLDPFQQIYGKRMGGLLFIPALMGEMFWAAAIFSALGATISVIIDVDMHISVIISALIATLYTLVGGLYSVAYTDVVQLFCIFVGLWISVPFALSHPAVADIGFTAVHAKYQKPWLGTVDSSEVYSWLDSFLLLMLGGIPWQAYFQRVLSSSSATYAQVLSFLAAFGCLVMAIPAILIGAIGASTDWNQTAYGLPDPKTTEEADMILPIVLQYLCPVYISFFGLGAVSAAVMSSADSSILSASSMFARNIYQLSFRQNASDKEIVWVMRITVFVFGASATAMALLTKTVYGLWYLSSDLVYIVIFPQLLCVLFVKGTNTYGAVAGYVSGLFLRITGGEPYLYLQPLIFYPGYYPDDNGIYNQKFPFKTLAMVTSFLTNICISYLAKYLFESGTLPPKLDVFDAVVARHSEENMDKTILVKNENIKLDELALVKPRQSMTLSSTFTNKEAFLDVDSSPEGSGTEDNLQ
# [2] = biological target: Induced myeloid leukemia cell differentiation protein Mcl-1 (Homo sapiens, UniProt Q07820); format: functional
# [3] = biological target: Genome polyprotein (dengue virus type 2, UniProt P29990); experiment: Dengue-2 NS5 methyltransferase inhibitors, primary screen, biochemical, confirmation dose response (AID 588689); format: functional
# [4] = biological target: T2, Leucine aminopeptidase (Plasmodium falciparum 3D7, UniProt Q8IL11); experiment: P. falciparum M17LAP inhibitors, primary screen, biochemical, fluorogenic H-Leu-NHMec substrate, 1536-well (AID 1619); format: functional
# T2 sequence (Q8IL11 whole entry): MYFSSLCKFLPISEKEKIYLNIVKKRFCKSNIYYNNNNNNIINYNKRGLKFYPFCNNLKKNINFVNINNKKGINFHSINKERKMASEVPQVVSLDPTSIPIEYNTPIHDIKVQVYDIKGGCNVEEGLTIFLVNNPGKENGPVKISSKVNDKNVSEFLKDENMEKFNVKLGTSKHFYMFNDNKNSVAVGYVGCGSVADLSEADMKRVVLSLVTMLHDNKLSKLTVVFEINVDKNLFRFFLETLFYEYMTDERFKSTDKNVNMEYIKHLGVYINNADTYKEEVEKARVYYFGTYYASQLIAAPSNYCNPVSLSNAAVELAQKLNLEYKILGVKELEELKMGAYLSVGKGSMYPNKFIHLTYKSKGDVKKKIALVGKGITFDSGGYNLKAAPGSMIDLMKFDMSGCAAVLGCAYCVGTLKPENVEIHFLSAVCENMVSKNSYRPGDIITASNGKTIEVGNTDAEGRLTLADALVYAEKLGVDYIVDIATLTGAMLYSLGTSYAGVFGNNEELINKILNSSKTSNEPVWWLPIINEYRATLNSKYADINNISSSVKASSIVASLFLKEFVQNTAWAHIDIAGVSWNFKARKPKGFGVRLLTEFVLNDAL
# [5] = biological target: T3, Aminopeptidase N (Plasmodium falciparum FcB1/Columbia, UniProt O96935); experiment: P. falciparum M1AAP inhibitors, biochemical, fluorogenic H-Leu-NHMec substrate, 1536-well (AID 1445); set-up: species or system Plasmodium falciparum 3D7, 3D7
# T3 sequence (O96935 whole entry): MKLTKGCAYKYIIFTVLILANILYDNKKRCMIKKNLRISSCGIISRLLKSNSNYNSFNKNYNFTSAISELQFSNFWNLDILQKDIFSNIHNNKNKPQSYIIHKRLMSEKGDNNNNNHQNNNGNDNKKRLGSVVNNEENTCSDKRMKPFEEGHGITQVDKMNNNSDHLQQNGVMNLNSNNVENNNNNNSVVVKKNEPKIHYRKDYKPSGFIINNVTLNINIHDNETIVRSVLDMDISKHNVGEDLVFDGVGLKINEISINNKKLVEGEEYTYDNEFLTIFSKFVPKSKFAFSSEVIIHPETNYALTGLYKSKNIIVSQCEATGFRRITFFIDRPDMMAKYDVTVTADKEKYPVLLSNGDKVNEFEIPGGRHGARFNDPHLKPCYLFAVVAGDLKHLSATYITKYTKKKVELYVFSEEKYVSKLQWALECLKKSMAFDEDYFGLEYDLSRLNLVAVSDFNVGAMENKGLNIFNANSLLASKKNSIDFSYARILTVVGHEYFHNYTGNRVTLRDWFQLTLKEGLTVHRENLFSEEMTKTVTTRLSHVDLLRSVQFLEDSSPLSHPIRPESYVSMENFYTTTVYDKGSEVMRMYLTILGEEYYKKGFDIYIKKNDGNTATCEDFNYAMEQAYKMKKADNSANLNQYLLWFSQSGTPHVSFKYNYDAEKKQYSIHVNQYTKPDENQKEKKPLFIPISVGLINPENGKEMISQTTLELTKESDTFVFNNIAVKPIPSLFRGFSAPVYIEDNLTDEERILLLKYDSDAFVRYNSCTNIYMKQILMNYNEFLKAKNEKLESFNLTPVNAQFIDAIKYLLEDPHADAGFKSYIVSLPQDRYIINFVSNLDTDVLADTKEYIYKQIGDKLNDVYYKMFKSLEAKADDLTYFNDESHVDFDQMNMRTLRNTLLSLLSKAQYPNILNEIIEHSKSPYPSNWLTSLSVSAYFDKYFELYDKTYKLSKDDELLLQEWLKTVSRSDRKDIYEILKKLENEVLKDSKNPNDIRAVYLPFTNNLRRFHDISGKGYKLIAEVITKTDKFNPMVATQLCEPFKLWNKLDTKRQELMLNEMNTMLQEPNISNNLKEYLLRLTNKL
# [6] = biological target: T4, Protein RecA (Mycobacterium tuberculosis, UniProt P9WHJ3); experiment: Fluorescence Cell-Free Homogeneous Dose Retest to Identify Inhibitors of RecA-Intein Splicing Activity. [Related pubchem assays (depositor defined):AID2097, AID2223, AID489010, AID492950]; format: functional
# T4 sequence (P9WHJ3 whole entry): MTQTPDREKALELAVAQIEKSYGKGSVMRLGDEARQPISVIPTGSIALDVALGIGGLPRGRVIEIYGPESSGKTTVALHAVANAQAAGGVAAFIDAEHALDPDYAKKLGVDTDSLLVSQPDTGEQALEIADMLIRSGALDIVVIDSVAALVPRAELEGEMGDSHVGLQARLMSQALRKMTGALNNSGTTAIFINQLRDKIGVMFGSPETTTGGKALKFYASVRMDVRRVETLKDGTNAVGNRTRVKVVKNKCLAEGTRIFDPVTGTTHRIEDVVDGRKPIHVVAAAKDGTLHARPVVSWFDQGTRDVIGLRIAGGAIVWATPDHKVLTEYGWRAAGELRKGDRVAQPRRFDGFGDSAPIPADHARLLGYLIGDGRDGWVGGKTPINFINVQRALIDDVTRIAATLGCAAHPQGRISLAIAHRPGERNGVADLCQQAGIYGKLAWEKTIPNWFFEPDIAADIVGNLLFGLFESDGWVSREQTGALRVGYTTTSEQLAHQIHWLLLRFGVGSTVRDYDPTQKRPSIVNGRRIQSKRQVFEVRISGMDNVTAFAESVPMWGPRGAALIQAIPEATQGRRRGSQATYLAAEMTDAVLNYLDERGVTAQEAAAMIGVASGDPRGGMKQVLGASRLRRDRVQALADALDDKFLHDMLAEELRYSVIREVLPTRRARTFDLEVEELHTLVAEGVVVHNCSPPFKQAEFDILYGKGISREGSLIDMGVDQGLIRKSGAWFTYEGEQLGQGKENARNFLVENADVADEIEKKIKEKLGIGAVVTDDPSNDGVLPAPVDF
# [7] = biological target: T5, Replicative DNA helicase DnaB (Mycobacterium tuberculosis, UniProt P9WMR3); experiment: DnaB intein splicing inhibitors, dose response, biochemical, cell-free fluorescence (AID 449749); format: functional
# T5 sequence (P9WMR3 whole entry): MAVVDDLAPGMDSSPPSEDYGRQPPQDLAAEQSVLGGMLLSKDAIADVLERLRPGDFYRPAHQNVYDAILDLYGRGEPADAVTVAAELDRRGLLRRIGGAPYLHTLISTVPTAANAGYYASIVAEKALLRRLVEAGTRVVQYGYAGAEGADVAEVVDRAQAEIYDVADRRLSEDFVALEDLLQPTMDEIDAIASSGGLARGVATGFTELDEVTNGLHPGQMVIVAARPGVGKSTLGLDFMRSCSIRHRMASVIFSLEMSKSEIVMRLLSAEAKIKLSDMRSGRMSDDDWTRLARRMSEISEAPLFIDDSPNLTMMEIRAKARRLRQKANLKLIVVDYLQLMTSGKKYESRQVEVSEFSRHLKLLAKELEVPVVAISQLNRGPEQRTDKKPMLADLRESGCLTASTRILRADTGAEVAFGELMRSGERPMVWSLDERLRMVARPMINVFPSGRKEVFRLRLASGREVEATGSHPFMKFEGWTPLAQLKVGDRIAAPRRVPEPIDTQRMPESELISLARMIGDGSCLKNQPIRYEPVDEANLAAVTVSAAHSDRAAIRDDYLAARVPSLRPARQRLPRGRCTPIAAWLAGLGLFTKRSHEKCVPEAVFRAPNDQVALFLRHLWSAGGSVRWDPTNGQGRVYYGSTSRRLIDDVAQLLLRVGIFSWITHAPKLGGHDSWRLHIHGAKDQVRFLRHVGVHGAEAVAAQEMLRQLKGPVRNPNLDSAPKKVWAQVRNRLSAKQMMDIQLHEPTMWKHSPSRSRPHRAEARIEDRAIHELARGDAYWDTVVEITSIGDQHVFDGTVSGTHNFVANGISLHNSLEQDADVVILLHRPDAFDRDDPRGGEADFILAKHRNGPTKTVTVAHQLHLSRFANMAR
# [8] = Luminescence Cell-Based Dose Confirmation HTS to Identify Activators of 5'UTR Stem-Loop Driven Alpha-Synuclein mRNA Translation in H4 Neuroglioblastoma Cells. [Related pubchem assays: 1829 (Project Summary), 1814 (Primary HTS)]; format: functional
# [9] = Luminescence Cell-Based Dose Response to Identify Activators of 5'UTR Stem-Loop Driven Prion Protein mRNA Translation in H4-C Neuroglioblastoma Cells. [Related pubchem assays: 1829 (Project Summary), 1814 (Primary HTS)]; format: functional
# [10] = Luminescence Cell-Based Dose Confirmation to Identify Activators of 5'UTR Stem-Loop Driven Alpha-Synuclein mRNA Translation in H4 Neuroglioblastoma Cells. [Related pubchem assays: 1829 (Project Summary), 1814 (Primary HTS)]; format: functional
# [11] = Luminescence Cell-Based Dose Response HTS to Identify Activators of Luciferase Translation or Activity in H4 […] Cells. [Related pubchem assays: 1829 (Project Summary), 1814 (Primary HTS)]; format: functional
# [12] = Luminescence Cell-Based Dose Response to Identify Activators of Luciferase Translation or Activity in H4-C Neuroglioblastoma Cells. [Related pubchem assays: 1829 (Project Summary), 1814 (Primary HTS)]; format: functional
# [13] = tested on: H4; experiment: Luminescence Cell-Based Dose Response HTS to Identify Activators of 5'UTR Stem-Loop Driven Prion Protein mRNA Translation in H4 Neuroglioblastoma Cells. [Related pubchem assays: 1829 (Project Summary), 1814 (Primary HTS)]; format: functional; conditions: Homo sapiens
# [14] = A cytotoxicity screen of small molecule inhibitors of the PhoP region in Salmonella typhi identified in the primary screen. [Related pubchem assays: 1850, 1864, 1985 ]; format: functional
# [15] = biological target: Peroxisome proliferator-activated receptor gamma/Nuclear receptor coactivator 1 (Homo sapiens, UniProt P37231); format: functional;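 note: agonist potency as compounds enhance coactivator SRC-1 recruitment to PPARgamma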
# [16] = biological target: Peroxisome proliferator-activated receptor gamma/Nuclear receptor coactivator 3 (Homo sapiens, UniProt P37231); format: functional;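 note: agonist potency for raising coactivator recruitment to the receptor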
# [17] = biological target: Peroxisome proliferator-activated receptor gamma/Nuclear receptor coactivator 2 (Homo sapiens, UniProt P37231); format: functional;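 note: agonist potency for raising coactivator recruitment to the receptor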
# [18] = biological target: Cytochrome P450 2C19 (Homo sapiens, UniProt P33261); experiment: Cytochrome panel assay with activity outcomes. Panel member name: p450-cyp2c19 Compounds with AC50 equal or less than 10 uM are considered active; format: functional; conditions: read-out: AC50
# Sequence of Cytochrome P450 2C19 (P33261 whole entry): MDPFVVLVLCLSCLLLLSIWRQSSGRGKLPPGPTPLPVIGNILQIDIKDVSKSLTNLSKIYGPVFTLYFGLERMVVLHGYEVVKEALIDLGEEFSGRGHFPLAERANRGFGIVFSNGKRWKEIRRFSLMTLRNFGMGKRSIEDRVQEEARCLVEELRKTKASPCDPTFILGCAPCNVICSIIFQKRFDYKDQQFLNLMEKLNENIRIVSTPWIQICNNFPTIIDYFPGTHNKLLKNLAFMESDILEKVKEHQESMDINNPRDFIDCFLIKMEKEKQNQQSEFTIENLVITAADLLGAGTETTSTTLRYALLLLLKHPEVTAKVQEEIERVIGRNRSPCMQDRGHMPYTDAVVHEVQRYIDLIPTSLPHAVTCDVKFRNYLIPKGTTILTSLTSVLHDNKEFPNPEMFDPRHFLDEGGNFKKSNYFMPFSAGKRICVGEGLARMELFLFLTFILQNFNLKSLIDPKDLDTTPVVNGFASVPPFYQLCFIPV
# Sequence of Peroxisome proliferator-activated receptor gamma/Nuclear receptor coactivator 2 (P37231 whole entry): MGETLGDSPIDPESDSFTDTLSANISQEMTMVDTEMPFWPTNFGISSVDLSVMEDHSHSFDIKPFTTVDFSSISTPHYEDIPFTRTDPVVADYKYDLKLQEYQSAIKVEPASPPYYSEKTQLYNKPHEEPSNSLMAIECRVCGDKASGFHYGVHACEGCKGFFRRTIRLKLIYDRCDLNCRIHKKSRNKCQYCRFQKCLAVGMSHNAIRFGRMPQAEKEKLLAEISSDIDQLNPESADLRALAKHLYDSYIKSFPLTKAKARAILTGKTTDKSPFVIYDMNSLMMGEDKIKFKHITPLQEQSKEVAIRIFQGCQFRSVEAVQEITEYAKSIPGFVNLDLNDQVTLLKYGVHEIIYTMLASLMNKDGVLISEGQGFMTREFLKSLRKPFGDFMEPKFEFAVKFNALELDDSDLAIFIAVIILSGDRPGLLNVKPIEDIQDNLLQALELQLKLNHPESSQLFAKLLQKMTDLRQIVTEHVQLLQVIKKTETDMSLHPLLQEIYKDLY
# Sequence of Peroxisome proliferator-activated receptor gamma/Nuclear receptor coactivator 2 (Q15596 whole entry, further chain): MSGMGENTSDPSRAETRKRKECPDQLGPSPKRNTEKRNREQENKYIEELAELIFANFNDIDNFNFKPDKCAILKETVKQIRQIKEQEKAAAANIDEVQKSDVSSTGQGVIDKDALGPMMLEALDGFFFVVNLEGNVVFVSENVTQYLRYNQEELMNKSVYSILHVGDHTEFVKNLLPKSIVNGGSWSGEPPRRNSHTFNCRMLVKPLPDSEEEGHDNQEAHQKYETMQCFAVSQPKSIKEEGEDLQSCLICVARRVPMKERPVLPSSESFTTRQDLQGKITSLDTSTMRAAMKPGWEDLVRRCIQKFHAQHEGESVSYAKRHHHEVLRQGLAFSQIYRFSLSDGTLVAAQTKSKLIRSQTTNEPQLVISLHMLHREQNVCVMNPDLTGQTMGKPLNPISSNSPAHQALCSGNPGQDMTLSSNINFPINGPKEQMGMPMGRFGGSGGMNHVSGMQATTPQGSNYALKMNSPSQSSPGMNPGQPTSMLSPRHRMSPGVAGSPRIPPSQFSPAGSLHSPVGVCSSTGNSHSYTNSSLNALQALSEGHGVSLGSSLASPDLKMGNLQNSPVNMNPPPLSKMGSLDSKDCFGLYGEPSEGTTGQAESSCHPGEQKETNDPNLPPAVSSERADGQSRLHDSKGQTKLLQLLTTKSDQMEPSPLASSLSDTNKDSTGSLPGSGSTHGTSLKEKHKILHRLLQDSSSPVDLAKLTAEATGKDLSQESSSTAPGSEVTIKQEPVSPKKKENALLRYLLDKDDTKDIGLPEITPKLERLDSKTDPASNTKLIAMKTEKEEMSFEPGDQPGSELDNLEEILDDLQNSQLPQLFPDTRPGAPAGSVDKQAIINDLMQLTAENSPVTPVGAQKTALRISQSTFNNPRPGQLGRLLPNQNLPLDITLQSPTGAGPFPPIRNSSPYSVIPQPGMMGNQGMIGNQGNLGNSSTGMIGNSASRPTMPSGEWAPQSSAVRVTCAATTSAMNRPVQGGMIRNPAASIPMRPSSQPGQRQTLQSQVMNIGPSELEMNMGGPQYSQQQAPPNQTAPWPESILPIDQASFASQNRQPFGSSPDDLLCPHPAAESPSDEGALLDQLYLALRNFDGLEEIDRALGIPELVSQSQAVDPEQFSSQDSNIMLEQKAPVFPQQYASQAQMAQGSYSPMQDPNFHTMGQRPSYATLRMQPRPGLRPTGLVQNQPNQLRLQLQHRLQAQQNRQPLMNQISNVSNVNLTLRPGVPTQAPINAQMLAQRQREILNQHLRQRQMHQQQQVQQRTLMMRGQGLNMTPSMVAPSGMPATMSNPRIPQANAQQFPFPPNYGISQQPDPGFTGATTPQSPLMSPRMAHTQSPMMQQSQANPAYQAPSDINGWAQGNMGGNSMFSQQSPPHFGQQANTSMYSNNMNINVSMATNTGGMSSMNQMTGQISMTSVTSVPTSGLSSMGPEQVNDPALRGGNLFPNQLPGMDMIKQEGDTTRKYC
# Sequence of Peroxisome proliferator-activated receptor gamma/Nuclear receptor coactivator 3 (P37231 whole entry): as the sequence (P37231 whole entry) above
# Sequence of Peroxisome proliferator-activated receptor gamma/Nuclear receptor coactivator 3 (Q9Y6Q9 whole entry, further chain): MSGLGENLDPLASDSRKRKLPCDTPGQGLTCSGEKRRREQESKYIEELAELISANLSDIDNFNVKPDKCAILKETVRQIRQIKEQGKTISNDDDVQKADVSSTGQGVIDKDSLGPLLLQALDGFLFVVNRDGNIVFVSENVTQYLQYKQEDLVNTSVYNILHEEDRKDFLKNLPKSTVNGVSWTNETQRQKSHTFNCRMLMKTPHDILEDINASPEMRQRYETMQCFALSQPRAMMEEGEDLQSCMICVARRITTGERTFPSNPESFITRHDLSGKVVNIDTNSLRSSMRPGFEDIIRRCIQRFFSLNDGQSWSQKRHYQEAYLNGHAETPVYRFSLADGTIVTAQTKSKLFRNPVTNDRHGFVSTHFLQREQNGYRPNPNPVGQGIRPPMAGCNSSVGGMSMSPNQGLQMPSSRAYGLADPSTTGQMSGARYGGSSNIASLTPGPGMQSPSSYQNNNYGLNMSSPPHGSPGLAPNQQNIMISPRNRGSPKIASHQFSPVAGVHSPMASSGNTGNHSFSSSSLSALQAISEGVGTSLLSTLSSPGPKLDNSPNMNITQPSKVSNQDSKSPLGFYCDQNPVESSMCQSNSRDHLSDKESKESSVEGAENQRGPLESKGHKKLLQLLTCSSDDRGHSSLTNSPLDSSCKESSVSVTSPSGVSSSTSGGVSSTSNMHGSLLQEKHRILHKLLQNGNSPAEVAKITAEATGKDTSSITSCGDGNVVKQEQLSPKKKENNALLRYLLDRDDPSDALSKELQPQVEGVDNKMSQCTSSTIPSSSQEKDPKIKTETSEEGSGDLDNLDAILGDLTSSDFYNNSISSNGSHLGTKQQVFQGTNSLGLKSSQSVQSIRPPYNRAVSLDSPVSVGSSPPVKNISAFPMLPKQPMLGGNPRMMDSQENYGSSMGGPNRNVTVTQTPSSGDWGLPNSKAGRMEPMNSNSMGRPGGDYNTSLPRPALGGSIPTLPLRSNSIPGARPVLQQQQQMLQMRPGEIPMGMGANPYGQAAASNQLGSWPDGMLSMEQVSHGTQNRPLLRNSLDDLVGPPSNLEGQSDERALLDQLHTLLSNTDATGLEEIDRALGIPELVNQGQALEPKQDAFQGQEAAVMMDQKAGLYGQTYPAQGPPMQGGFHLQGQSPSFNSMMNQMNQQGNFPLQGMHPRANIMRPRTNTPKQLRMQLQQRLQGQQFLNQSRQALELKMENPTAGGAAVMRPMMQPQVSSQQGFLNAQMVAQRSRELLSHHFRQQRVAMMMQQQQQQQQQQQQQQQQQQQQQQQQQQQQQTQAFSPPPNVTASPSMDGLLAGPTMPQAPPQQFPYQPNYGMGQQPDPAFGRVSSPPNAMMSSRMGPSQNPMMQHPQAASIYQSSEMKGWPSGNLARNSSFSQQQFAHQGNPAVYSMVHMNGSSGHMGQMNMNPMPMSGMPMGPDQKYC
# Sequence of Induced myeloid leukemia cell differentiation protein Mcl-1 (Q07820 whole entry): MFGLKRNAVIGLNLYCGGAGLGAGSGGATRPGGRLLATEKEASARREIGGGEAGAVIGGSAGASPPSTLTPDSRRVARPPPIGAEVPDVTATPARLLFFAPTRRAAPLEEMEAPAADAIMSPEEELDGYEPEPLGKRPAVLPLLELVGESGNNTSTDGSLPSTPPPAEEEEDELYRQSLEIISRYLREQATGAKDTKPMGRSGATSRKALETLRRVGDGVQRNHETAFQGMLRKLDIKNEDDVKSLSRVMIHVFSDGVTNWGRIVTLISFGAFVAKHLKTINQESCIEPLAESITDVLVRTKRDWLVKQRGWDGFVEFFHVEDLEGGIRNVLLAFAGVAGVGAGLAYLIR
structure (smiles),measurement,setting,value
Cc1ccc(NC(S)=NNc2ccc([N+](=O)[O-])cc2S(=O)(=O)Nc2ccccc2C(=O)O)cc1C,IC50,[1],12.3 µM (active)
same,IC50,[2],2.99 µM (active)
same,IC50,[3],> 100 µM (active)
same,IC50,[4],5.16 µM (active)
same,IC50,[5],29.5 µM (active)
COc1ccccc1NC(=O)CSc1nc(O)cc(=O)[nH]1,IC50,[4],74.7 µM (active)
CC(C)CC1C(C#N)=C(N)Oc2[nH]nc(-c3ccccc3)c21 (centres undefined),EC50,[6],2.13 µM (active)
same,IC50,[4],33.7 µM (active)
same,AC50,[7],5.91 µM (active)
c1ccc2nc3c(nc2c1)OCC1CCCCN31 (centres undefined),EC50,[8],0.475 µM (active)
same,EC50,[9],1.45 µM (active)
same,EC50,[10],> 12 µM (not active)
same,EC50,[11],0.193 µM (active)
same,EC50,[12],0.49 µM (active)
same,EC50,[13],0.161 µM (active)
Cn1cnnc1SCC(=O)Nc1ccc2nc(SCc3ccccc3)sc2c1,EC50,[14],> 50 µM (active)
COc1c(OC)c(O)c2c(=O)cc(-c3c(O)cccc3O)oc2c1OC,EC50,[15],> 79.4 µM (not active)
same,EC50,[16],> 79.4 µM (not active)
same,EC50,[17],> 79.4 µM (not active)
Cc1cc(OCC(=O)Nc2ccc3oc(-c4ccncc4)nc3c2)ccc1Cl,EC50,[15],24.8 µM (not active)
same,EC50,[16],50.6 µM (not active)
same,EC50,[17],25.3 µM (not active)
Cn1nnc2cc(NC(=O)Nc3cccc(Cl)c3)ccc21,EC50,[9],0.832 µM (active)
same,EC50,[10],0.413 µM (active)
same,EC50,[11],0.176 µM (active)
same,EC50,[12],0.553 µM (active)
same,EC50,[13],0.109 µM (active)
Cc1cccc(NC(=O)CSc2nc3n[nH]cc3c(=O)[nH]2)c1,IC50,[4],3.88 µM (active)
Cc1ccc(N/N=C2/C(=N)N(c3ccccc3)NC2=O)cc1,EC50,[15],> 79.4 µM (not active)
same,EC50,[16],> 79.4 µM (not active)
same,EC50,[17],> 79.4 µM (not active)
same,AC50,[18],5.01 µM (inconclusive)
same,EC50,[13],10.6 µM (active)
CCN1CCN(C(=O)Nc2ccc(Cc3ccc(NC(=O)N4CCN(CC)CC4)cc3)cc2)CC1,EC50,[14],> 50 µM (active)

# Source: ChEMBL document CHEMBL1201862, “PubChem BioAssay data set” (2004)
